Columns and labels:
[1] = target: Voltage-gated inwardly rectifying potassium channel KCNH2 (Homo sapiens, UniProt Q12809); assay: Binding affinity to hERG by radioligand binding assay
[2] = Binding affinity to EP receptor by radioligand binding assay
[3] = target: Alpha-2C adrenergic receptor (Homo sapiens, UniProt P18825); assay: Binding affinity to alpha 2C adrenergic receptor by radioligand binding assay
[4] = target: GABA-A receptor; anion channel; assay: Binding affinity to GABA receptor by radioligand binding assay; format: protein-complex assay
Adenosine A2 receptor = Adenosine A2 receptor (Homo sapiens, UniProt P29275+P29274); assay: Binding affinity to adenosine A2 receptor by radioligand binding assay; format: protein assay
[5] = target: 5-hydroxytryptamine receptor 2A (Homo sapiens, UniProt P28223); assay: Binding affinity to 5HT2A receptor by radioligand binding assay
[6] = target: Alpha-1B adrenergic receptor (Homo sapiens, UniProt P35368); assay: Binding affinity to alpha 1B adrenergic receptor by radioligand binding assay
[7] = target: Alpha-1A adrenergic receptor (Homo sapiens, UniProt P35348); assay: Binding affinity to alpha 1A adrenergic receptor by radioligand binding assay
[8] = Binding affinity to V receptor by radioligand binding assay
[9] = target: T1, 5-hydroxytryptamine receptor 1A (Homo sapiens, UniProt P08908); assay: Binding affinity to 5HT1A receptor by radioligand binding assay
[10] = target: 5-hydroxytryptamine receptor 1B (Homo sapiens, UniProt P28222); assay: Binding affinity to 5HT1B receptor by radioligand binding assay
Adenosine receptor A1 = Adenosine receptor A1 (Homo sapiens, UniProt P30542); assay: Binding affinity to adenosine A1 receptor by radioligand binding assay
[11] = target: 5-hydroxytryptamine receptor 1E (Homo sapiens, UniProt P28566); assay: Binding affinity to 5HT1E receptor by radioligand binding assay
[12] = Binding affinity to mGluR by radioligand binding assay; parameters: species or system Homo sapiens
[13] = target: 5-hydroxytryptamine receptor 5A (Homo sapiens, UniProt P47898); assay: Binding affinity to 5HT5A receptor by radioligand binding assay
D(1B) dopamine receptor = D(1B) dopamine receptor (Homo sapiens, UniProt P21918); assay: Binding affinity to D5 dopamine receptor by radioligand binding assay
[14] = target: T1, 5-hydroxytryptamine receptor 1A; assay: Agonist activity assessed by stimulation of [35S]GTP-gamma-S binding to human 5HT1A receptor expressed in CHO cells; format: functional, cell-based
[15] = Binding affinity to calcium channel by radioligand binding assay
Adenosine receptor A3 = Adenosine receptor A3 (Homo sapiens, UniProt P0DMS8); assay: Binding affinity to adenosine A3 receptor by radioligand binding assay
[16] = Binding affinity to NK receptor by radioligand binding assay
Histamine H2 receptor = Histamine H2 receptor (Homo sapiens, UniProt P25021); assay: Binding affinity to histamine H2 receptor by radioligand binding assay
Histamine H1 receptor = Histamine H1 receptor (Homo sapiens, UniProt P35367); assay: Binding affinity to histamine H1 receptor by radioligand binding assay
[17] = target: Sodium-dependent serotonin transporter (Homo sapiens, UniProt P31645); assay: Binding affinity to SERT by radioligand binding assay
[18] = target: Serotonin 3 (5-HT3) receptor; assay: Binding affinity to 5HT3 receptor by radioligand binding assay; format: protein-complex assay, Homo sapiens
[19] = Binding affinity to VMAT by radioligand binding assay
[20] = target: Glutamate receptor ionotropic kainate; assay: Binding affinity to KAR by radioligand binding assay; format: protein-complex assay
Translocator protein = Translocator protein (Homo sapiens, UniProt P30536); assay: Binding affinity to BZP receptor by radioligand binding assay
[21] = target: Sigma non-opioid intracellular receptor 1 (Homo sapiens, UniProt Q99720); assay: Binding affinity to sigma1 opioid receptor by radioligand binding assay
[22] = target: Delta-type opioid receptor (Homo sapiens, UniProt P41143); assay: Binding affinity to DOR by radioligand binding assay
Baboon = assay: Penetration through blood-brain barrier in baboon; format: ADME, organism-based, Papio; settings: in vivo
[23] = target: Kappa-type opioid receptor (Homo sapiens, UniProt P41145); assay: Binding affinity to KOR by radioligand binding assay
[24] = target: 5-hydroxytryptamine receptor 6 (Homo sapiens, UniProt P50406); assay: Binding affinity to 5HT6 receptor by radioligand binding assay
[25] = target: Alpha-2A adrenergic receptor (Homo sapiens, UniProt P08913); assay: Binding affinity to alpha 2A adrenergic receptor by radioligand binding assay
D(4) dopamine receptor = D(4) dopamine receptor (Homo sapiens, UniProt P21917); assay: Binding affinity to D4 receptor by radioligand binding assay
[26] = target: 5-hydroxytryptamine receptor 2B (Homo sapiens, UniProt P41595); assay: Binding affinity to 5HT2B receptor by radioligand binding assay
[27] = target: ATP-dependent translocase ABCB1 (Homo sapiens, UniProt P08183); assay: Binding affinity to MDR1 by radioligand binding assay
[28] = target: Sodium-dependent noradrenaline transporter (Homo sapiens, UniProt P23975); assay: Binding affinity to NET by radioligand binding assay
[29] = target: Sodium-dependent dopamine transporter (Homo sapiens, UniProt Q01959); assay: Binding affinity to DAT by radioligand binding assay
Histamine H3 receptor = Histamine H3 receptor (Homo sapiens, UniProt Q9Y5N1); assay: Binding affinity to histamine H3 receptor by radioligand binding assay
[30] = target: Glutamate [NMDA] receptor; assay: Binding affinity to NMDA receptor by radioligand binding assay; format: protein-complex assay
[31] = target: Glutamate receptor ionotropic AMPA (Homo sapiens, UniProt P42261+P42262+P42263+P48058); assay: Binding affinity to AMPA receptor by radioligand binding assay; format: protein-complex assay
[32] = target: 5-hydroxytryptamine receptor 1A (Homo sapiens) (UniProt P08908); assay: Agonist activity assessed by stimulation of [35S]GTP-gamma-S binding to human 5HT1A receptor expressed in CHO cells relative to 5-HT; format: functional, cell-based
D(3) dopamine receptor = D(3) dopamine receptor (Homo sapiens, UniProt P35462); assay: Binding affinity to D3 receptor by radioligand binding assay
Histamine H4 receptor = Histamine H4 receptor (Homo sapiens, UniProt Q9H3N8); assay: Binding affinity to histamine H4 receptor by radioligand binding assay
[33] = target: Muscarinic acetylcholine receptor; assay: Binding affinity to M receptor by radioligand binding assay; format: protein assay
Adenosine receptor A2a = Adenosine receptor A2a (Homo sapiens, UniProt P29274); assay: Binding affinity to adenosine […] receptor by radioligand binding assay
[34] = target: 5-hydroxytryptamine receptor 7 (Homo sapiens, UniProt P34969); assay: Binding affinity to 5HT7 receptor by radioligand binding assay
D(2) dopamine receptor = D(2) dopamine receptor (Homo sapiens, UniProt P14416); assay: Binding affinity to D2 dopamine receptor by radioligand binding assay
[35] = Binding affinity to sodium channel by radioligand binding assay

T1 sequence (P08908 whole entry): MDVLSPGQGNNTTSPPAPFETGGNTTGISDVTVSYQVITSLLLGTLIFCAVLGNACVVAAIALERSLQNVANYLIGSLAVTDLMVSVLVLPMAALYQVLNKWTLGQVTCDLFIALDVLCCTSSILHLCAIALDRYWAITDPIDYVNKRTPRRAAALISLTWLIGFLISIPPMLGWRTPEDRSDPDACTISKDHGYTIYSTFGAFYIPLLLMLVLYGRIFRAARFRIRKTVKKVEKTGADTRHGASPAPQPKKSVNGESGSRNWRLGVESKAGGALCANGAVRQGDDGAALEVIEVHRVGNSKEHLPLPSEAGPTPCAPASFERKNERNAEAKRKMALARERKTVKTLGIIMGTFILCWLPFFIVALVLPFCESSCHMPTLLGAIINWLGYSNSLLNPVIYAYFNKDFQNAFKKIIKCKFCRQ
5-hydroxytryptamine receptor 6, sequence (P50406 whole entry): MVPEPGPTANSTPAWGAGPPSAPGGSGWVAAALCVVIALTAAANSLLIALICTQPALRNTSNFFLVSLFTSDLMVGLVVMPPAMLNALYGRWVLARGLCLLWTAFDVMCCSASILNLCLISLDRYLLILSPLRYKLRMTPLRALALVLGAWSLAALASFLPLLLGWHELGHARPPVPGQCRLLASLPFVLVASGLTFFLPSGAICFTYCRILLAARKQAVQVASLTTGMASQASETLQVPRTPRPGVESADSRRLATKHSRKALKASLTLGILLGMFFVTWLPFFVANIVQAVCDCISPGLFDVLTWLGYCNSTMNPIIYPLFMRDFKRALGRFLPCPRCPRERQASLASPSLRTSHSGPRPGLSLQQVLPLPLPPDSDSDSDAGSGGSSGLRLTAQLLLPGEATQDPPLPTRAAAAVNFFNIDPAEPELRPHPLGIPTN
Adenosine receptor A1, sequence (P30542 whole entry): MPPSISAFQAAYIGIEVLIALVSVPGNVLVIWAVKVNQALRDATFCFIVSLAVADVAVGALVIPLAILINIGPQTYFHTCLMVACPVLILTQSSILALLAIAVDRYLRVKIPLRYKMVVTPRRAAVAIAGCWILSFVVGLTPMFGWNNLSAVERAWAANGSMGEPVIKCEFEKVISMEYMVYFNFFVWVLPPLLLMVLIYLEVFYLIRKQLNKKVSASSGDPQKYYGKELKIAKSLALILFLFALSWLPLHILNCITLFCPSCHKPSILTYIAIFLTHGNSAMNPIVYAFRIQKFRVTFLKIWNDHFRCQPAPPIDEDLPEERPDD
5-hydroxytryptamine receptor 1E, sequence (P28566 whole entry): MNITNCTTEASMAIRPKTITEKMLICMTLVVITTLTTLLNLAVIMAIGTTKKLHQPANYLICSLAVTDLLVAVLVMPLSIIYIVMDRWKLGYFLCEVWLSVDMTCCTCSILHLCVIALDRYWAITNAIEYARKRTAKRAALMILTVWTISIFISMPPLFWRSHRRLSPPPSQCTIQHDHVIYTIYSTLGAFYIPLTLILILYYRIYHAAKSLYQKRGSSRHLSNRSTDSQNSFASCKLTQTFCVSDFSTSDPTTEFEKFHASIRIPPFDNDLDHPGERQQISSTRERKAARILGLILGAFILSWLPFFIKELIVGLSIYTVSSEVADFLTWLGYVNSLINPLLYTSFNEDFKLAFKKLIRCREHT
ATP-dependent translocase ABCB1, sequence (P08183 whole entry): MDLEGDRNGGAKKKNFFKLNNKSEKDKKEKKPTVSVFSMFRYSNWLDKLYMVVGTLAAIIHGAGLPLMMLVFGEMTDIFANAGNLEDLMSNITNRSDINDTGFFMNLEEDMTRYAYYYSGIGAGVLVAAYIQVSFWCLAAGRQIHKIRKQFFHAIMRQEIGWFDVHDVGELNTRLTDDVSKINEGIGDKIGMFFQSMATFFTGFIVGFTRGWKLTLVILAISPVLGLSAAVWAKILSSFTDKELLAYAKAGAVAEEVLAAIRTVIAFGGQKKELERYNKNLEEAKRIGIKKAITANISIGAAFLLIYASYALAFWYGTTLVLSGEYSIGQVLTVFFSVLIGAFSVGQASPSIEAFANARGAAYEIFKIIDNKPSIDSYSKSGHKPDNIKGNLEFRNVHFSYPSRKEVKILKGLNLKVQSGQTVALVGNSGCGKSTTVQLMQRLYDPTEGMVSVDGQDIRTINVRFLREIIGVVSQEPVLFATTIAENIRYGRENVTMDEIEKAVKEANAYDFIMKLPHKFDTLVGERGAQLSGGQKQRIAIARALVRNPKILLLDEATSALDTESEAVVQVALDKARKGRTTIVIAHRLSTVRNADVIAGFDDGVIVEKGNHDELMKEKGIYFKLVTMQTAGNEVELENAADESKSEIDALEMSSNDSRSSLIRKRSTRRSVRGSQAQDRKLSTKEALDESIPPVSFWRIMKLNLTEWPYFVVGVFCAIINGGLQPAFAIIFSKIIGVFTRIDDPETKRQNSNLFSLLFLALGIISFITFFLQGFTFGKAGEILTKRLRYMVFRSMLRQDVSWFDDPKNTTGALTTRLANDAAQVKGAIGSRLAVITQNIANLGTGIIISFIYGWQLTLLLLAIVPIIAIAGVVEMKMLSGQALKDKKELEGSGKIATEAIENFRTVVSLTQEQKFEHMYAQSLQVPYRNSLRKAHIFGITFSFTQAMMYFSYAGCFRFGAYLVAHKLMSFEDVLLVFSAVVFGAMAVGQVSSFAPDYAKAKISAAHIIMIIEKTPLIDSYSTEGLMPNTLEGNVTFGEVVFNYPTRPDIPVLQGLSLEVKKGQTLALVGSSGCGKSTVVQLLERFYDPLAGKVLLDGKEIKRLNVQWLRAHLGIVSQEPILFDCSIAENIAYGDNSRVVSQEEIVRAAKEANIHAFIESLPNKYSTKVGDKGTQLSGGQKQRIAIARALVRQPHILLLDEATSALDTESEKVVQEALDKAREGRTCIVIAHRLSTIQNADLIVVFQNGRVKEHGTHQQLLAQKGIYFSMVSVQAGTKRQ
D(3) dopamine receptor, sequence (P35462 whole entry): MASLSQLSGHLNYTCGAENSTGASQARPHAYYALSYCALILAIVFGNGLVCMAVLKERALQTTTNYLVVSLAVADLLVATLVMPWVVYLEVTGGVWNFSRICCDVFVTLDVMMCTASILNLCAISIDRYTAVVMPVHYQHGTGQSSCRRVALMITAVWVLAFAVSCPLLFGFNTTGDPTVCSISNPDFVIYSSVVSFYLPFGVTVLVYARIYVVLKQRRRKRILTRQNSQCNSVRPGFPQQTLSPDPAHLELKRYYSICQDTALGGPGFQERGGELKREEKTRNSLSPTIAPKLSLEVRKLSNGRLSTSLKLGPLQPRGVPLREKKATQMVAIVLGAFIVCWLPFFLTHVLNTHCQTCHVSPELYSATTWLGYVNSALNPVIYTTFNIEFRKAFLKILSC
D(2) dopamine receptor, sequence (P14416 whole entry): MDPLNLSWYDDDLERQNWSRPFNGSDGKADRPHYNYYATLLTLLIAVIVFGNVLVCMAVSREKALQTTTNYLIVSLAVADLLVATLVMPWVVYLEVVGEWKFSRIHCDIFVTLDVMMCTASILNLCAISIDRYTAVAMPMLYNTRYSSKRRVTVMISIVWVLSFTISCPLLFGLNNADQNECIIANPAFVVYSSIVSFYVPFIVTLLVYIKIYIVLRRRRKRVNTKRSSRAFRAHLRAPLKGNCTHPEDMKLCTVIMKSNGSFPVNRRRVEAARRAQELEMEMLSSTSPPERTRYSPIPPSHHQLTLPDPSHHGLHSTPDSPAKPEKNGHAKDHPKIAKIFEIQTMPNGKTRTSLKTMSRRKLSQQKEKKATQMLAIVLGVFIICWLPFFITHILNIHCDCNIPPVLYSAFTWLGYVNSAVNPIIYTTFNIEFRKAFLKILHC
Voltage-gated inwardly rectifying potassium channel KCNH2, sequence (Q12809 whole entry): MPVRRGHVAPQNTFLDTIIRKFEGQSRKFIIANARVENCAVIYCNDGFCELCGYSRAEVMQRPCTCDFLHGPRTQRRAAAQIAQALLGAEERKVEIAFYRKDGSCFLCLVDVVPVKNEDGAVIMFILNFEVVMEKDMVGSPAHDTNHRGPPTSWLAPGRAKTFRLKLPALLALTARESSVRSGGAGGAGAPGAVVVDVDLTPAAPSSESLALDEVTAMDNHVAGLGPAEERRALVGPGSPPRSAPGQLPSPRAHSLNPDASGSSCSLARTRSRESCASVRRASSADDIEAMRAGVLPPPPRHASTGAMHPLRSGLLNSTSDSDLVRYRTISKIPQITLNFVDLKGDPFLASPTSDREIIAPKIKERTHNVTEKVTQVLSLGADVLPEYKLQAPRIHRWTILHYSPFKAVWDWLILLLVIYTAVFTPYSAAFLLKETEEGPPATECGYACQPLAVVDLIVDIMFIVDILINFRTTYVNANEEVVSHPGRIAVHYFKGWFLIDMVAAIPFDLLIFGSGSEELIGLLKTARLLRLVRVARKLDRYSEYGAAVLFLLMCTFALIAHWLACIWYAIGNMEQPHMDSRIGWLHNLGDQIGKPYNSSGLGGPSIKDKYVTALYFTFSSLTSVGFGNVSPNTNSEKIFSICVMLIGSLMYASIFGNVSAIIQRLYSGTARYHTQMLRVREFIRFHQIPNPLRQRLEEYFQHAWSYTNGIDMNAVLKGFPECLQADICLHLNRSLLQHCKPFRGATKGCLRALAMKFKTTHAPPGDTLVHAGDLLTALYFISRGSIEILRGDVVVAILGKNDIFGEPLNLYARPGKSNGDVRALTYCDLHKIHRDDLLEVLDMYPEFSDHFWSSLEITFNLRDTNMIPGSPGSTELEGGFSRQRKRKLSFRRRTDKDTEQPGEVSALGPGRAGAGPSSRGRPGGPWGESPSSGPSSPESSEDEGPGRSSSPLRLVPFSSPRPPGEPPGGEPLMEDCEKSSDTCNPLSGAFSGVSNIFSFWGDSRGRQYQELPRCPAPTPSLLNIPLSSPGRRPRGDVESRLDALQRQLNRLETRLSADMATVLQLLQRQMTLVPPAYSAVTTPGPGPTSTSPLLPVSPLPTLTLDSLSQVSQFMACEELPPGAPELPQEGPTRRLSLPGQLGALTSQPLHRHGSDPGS
5-hydroxytryptamine receptor 1A (Homo sapiens), sequence (P08908 whole entry): as the sequence (P08908 whole entry) above

Ki [2]: > 10 µM
Ki [3]: 0.109 µM
Ki [4]: > 10 µM
Ki (Adenosine A2 receptor): > 10 µM
Ki [5]: 2.1 µM
Ki [6]: 0.378 µM
Ki [7]: 0.413 µM
Ki [8]: > 10 µM
Ki [9]: 0.0011 µM
Ki [10]: 0.228 µM
Ki (Adenosine receptor A1): > 10 µM
Ki [11]: > 10 µM
Ki [12]: > 10 µM
Ki [13]: > 10 µM
Ki (D(1B) dopamine receptor): > 10 µM
EC50 [14]: 0.0003 µM
Ki [15]: > 10 µM
Ki (Adenosine receptor A3): > 10 µM
Ki [16]: > 10 µM
Ki (Histamine H2 receptor): 2.13 µM
Ki (Histamine H1 receptor): 0.839 µM
Ki [17]: > 10 µM
Ki [18]: > 10 µM
Ki [19]: > 10 µM
Ki [20]: > 10 µM
Ki (Translocator protein): > 10 µM
Ki [21]: 0.18 µM
Ki [22]: > 10 µM
Activity (Baboon): Active
Ki [23]: > 10 µM
Ki [24]: > 10 µM
Ki [25]: 0.25 µM
Ki (D(4) dopamine receptor): > 10 µM
Ki [26]: 0.0337 µM
Ki [27]: > 10 µM
Ki [28]: > 10 µM
Ki [29]: > 10 µM
Ki (Histamine H3 receptor): > 10 µM
Ki [30]: > 10 µM
Ki [31]: > 10 µM
Emax [32]: 95%
Ki (D(3) dopamine receptor): > 10 µM
Ki (Histamine H4 receptor): > 10 µM
Ki [33]: > 10 µM
Ki (Adenosine receptor A2a): > 10 µM
Ki [34]: 0.328 µM
Ki (D(2) dopamine receptor): 2.58 µM
Ki [35]: > 10 µM
Compound: COc1cccc(N2CCN(CCCCn3ncc(=O)n(C)c3=O)CC2)c1
Ki [1]: > 10 µM

— ChEMBL document CHEMBL1146943, “Synthesis, in vitro and in vivo evaluation of [O-methyl-11C] 2-{4-[4-(3-methoxyphenyl)piperazin-1-yl]-butyl}-4-methyl-2H-[1,2,4]-triazine-3,5-dione: a novel agonist 5-HT1A receptor PET ligand” (Bioorg Med Chem Lett, 2006)
